Assay results as given in US9315459B2, “Crystalline forms of 4-[2-(4-methylphenylsulfanyl)-phenyl] piperidine” (priority 2006, dated 2016).

Columns and labels:
[1] = tested on: extracellular levels of acetylcholine; assay: Microdialysis, extracellular acetylcholine in prefrontal cortex of freely-moving rats (Example 2F); type: in vivo, rat; conditions: Wistar rats, s.c., FIG. 24
Procedure: The experiment was designed to evaluate the effects of compounds of the present invention on extracellular levels of acetylcholine in the prefrontal cortex of freely-moving rats.
Male Wistar rats (280-350 g; Harlan, Zeist, The Netherlands) were used for the experiments. Rats were individually housed in plastic cages (30×30×40 cm) and had ad libitum access to food and water.
Rats were anesthetized using isoflurane (2%, 400 mL/min N2O, 400 ml/min O2). Lidocain (10% m/v) was used for local anesthesia. […]
Experiments were carried out 24-48 hours after surgery. […] Samples were collected by an automated fraction collector (CMA 142), and stored at −80° C. until analyzed. […]
Concentrations of acetylcholine were determined by HPLC with tandem mass spectrometry (MS/MS) detection. […]
The LC/MS analyses were performed using an API 4000 MS/MS system consisting of an API 4000 MS/MS detector and a Turbo Ion Spray interface (both from Applied Biosystems, the Netherlands). […] Data were calibrated and quantitated using the Analyst™ data system (Applied Biosystem, version 1.2).
Two consecutive microdialysis samples with less then 50% variation were taken as baseline levels and set at 100%. Changes in acetylcholine concentration were expressed as percent of baseline within the same subject.

[2] = tested on: extracellular levels of acetylcholine; assay: Microdialysis, extracellular acetylcholine in prefrontal cortex and ventral hippocampus of freely-moving rats (Example 2G); type: in vivo, rat; conditions: Sprague-Dawley rats, FIG. 25a+b
Procedure: The experiment was designed to evaluate the effects of compounds of the present invention on extracellular levels of acetylcholine in the prefrontal cortex and ventral hippocampus of freely-moving rats.
Male Sprague-Dawley rats, initially weighing 275-300 g, were used. The animals were housed under a 12-hr light/dark cycle under controlled conditions for regular in-door temperature (21±2° C.) and humidity (55±5%) with food and tap water available ad libitum.
Rats were anaesthetised with hypnorm/dormicum (2 ml/kg) and intracerebral guide cannulas (CMA/12) were stereotaxically implanted into the hippocampus, aiming to position the dialysis probe tip in the ventral hippocampus (co-ordinates: 5.6 mm posterior to bregma, lateral −5.0 mm, 7.0 mm ventral to dura or in the frontal cortex (co-ordinates: 3.2 mm anterior to bregma; lateral, 0.8 mm; 4.0 mm ventral to dura). Anchor screws and acrylic cement were used for fixation of the guide cannulas. The body temperature of the animals was monitored by rectal probe and maintained at 37° C. The rats were allowed to recover from surgery for 2 days, housed singly in cages. On the day of the experiment a microdialysis probe (CMA/12, 0.5 mm diameter, 3 mm length) was inserted through the guide cannula.
The probes were connected via a dual channel swivel to a microinjection pump. […]

How did the “Extracellular level of acetylcholine” value [1] turn out when `Cc1ccc(Sc2ccccc2C2CCNCC2)cc1` [compound I, 4-[2-(4-methylphenylsulfanyl)-phenyl]piperidine] was run?
The value was “increase”.

And the “Extracellular level of acetylcholine” value [2]?
The value was “increase”.
